Measured values from paper PMC12914920, “Novel glycine amides, semicarbazides and fluoroallylamines as inhibitors of the amine oxidase vascular adhesion protein-1 (VAP-1)” (RSC Medicinal Chemistry, 2026).

Target: T1, VAP-1 in human plasma (Homo sapiens, UniProt Q16853)
T1 construct: from tissue; host or cells: human whole plasma from donated blood (Münster University Hospital)
T1 sequence (Q16853 27-763 limits assumed): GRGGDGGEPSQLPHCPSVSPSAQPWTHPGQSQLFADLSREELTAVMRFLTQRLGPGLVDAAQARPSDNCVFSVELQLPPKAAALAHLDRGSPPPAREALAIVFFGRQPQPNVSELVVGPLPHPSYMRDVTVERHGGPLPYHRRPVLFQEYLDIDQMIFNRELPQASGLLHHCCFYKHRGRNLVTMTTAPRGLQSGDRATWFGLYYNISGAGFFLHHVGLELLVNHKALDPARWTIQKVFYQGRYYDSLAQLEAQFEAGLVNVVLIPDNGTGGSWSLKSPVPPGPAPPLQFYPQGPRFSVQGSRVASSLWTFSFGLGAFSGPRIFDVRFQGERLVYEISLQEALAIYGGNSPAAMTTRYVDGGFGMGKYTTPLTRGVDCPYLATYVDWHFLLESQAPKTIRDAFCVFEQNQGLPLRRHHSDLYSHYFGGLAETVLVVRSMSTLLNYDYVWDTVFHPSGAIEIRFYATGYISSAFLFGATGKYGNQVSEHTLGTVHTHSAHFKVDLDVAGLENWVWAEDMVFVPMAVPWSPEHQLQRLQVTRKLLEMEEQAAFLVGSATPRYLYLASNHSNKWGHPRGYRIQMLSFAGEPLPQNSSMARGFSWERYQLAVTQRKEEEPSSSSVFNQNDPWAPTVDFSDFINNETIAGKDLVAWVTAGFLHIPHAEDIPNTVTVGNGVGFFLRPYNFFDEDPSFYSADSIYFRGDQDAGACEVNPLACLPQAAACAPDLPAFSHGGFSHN
Experiment: Inhibition of VAP-1 activity in human whole plasma
Type: biochemical
Conditions: 15 min pre-incubation of enzyme and inhibitor
Method: Preparation of human plasma: Human blood was collected in S-Monovette® Lithium-Heparin LH/7.5 mL (Sarstedt, Nümbrecht, Germany) during a blood donation at Münster University Hospital. Each about 5 mL of blood were pipetted into 10 mL Falcon Tubes and subsequently centrifuged at 1500 × g at 20 °C for 15 min. Aliquots of 800 μL plasma were transferred into 2 mL Eppendorf tubes and stored at −80 °C until further use.
Incubation procedure: A solution of the appropriate inhibitor in DMSO (concentration variable) (1.25 μL) was treated with human whole plasma (47.5 μL) and pre-incubated at 37 °C for 15 min. Subsequently, the enzyme reaction was started by the addition of a solution of the substrate 6-(5-phenyl-2H-tetrazol-2-yl)hexan-1-amine[47] (10 mM) in DMSO (1.25 μL). After 2 h of incubation, acetonitrile (50 μL) was added. The samples were cooled in an ice bath for 10 min and centrifuged at 12 000 × g and 10 °C for 10 min. […] Controls with DMSO (1.25 μL) instead of a DMSO solution of the inhibitor (1.25 μL) were prepared in the same manner in parallel (n = 3). Blanks were run by incubating a mixture of the substrate solution in DMSO and DMSO (1.25 μL each) and 47.5 μL of PBS in the same way. […] The peak ratios of enzyme product and internal standard obtained in the absence and presence of a test compound were compared, corrected for the blank value.

N#Cc1ccc(-c2nnn(Cc3cccc(CNC(=O)CN)c3)n2)cc1 [Compound 63]
IC50: 320 nM
